Data taken from patent US12410171B2, “Tropomyosin receptor kinase (TRK) degradation compounds and methods of use” (Cullgen (Shanghai), Inc., priority 2020, dated 2025).
Read-outs that look alike come from different tables or passages of the source.

Assays:
TPM3-TRKA fusion protein = target: T1, TPM3-TRKA fusion protein (Homo sapiens, UniProt P04629); assay: TPM3-TRKA fusion protein levels in KM12 cells (Western blot); type: cell-based; settings: read-out: Degradation (at 10 nM)
T1 construct: The resulted chimeric proteins always retain the kinase domain of TRK proteins; TPM3 (fusion partner, N-terminal part of tropomyosin alpha-3, P06753); endogenous in cells; host or cells: KM12 colon cancer cells; the other entry of the earlier key: TPM3 (P06753, Tropomyosin alpha-3 chain)
How it was run: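 TPM3-TRKA levels were assessed by Western blot with chemiluminescent detection and band densitometry, after SDS-PAGE of BCA-normalized RIPA lysates. Before lysis, KM12 cells received DMSO, compounds or matched control compounds at concentrations including 0.1, 1, 10 and 100 nM and 0.4–30 nM. Exposures lasted 4 h, 8–16 h or 16 h.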

KM12 cells = assay: KM12 cell viability (CellTiter-Glo); type: cell-based; settings: Homo sapiens
How it was run: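 Three-day exposure of KM12 cells (5000/well, RPMI 1640 with 10% FBS, 37 °C, 5% CO2) to compound dilution series, 3-fold over 8 or 11 points (top 1000 nM in the 8-point format) or 2-fold over 12. CellTiter-Glo readout, with IC50 fitted by nonlinear least-squares regression.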

[1] = 16 h, TPM3-TRKA degradation in KM12 cells at 10 nM compound, category of percentage degradation
[2] = 72 h, KM12 cell viability, CellTiter-Glo, three days treatment, read-out: IC50

T1 sequence (P04629 with tags, fused parts or gaps): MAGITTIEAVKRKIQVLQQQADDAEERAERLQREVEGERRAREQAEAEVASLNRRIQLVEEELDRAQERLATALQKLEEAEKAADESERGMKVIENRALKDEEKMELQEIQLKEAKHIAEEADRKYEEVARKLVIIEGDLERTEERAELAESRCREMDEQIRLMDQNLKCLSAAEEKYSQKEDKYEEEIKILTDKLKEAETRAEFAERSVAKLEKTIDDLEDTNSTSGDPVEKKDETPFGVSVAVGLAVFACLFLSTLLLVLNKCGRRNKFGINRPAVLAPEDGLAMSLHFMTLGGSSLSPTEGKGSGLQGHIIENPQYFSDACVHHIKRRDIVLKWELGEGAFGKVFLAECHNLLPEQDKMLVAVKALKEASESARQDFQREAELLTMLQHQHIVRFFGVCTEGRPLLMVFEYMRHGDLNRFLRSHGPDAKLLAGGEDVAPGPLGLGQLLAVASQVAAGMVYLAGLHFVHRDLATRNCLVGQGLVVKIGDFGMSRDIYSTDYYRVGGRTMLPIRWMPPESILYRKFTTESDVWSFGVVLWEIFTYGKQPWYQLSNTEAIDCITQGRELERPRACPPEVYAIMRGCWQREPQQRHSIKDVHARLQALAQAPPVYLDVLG

| SMILES | percent degradation of TPM3-TRKA protein at 0.01 µM (TPM3-TRKA fusion protein; [1]) [%] | IC50 (KM12 cells; [2]) [nM] | percent degradation of TPM3-TRKA protein at 0.01 µM (TPM3-TRKA fusion protein; KM12, 16 h) [%] | IC50 (KM12 cells; KM12, 72 h) [nM] |
| --- | --- | --- | --- | --- |
| O=C1CCC(N2C(=O)c3ccc(NC(=O)CN4CCN(c5cccc(-c6cnc7ccc(N8CCC[C@@H]8c8cccc(F)c8)nn67)n5)CC4)cc3C2=O)C(=O)N1 (stereo partly drawn) [TR-233, N-(2-(2,6-dioxopiperidin-3-yl)-1,3-dioxoisoindolin-5-yl)-2-(4-(6-(6-((R)-2-(3-fluorophenyl)pyrrolidin-1-yl)imidazo[1,2-b]pyridazin-3-yl)pyridin-2-yl)piperazin-1-yl)acetamide] | > 80 | 5 | – | – |
| O=C1CCC(N2C(=O)Cc3c(NCCN4CCN(c5cccc(-c6cnc7ccc(N8CCC[C@@H]8c8cccc(F)c8)nn67)n5)CC4)cccc32)C(=O)N1 (stereo partly drawn) [TR-236, 3-(4-((2-(4-(6-(6-((R)-2-(3-Fluorophenyl)pyrrolidin-1-yl)imidazo[1,2-b]pyridazin-3-yl)pyridin-2-yl)piperazin-1-yl)ethyl)amino)-2-oxoindolin-1-yl)piperidine-2,6-dione] | < 50 | 99.2 | – | – |
| O=C1CCC(N2C(=O)c3ccc(CN4CC(N5CCN(c6cccc(-c7cnc8ccc(N9CCC[C@@H]9c9cccc(F)c9)nn78)n6)CC5)C4)cc3C2=O)C(=O)N1 (stereo partly drawn) [TR-237, 2-(2,6-dioxopiperidin-3-yl)-5-((3-(4-(6-(6-((R)-2-(3-fluorophenyl)pyrrolidin-1-yl)imidazo[1,2-b]pyridazin-3-yl)pyridin-2-yl)piperazin-1-yl)azetidin-1-yl)methyl)isoindoline-1,3-dione] | > 80 | 138 | – | – |
| Cn1c(=O)n(C2CCC(=O)NC2=O)c2cccc(C#CCN3CCN(c4cccc(-c5cnc6ccc(N7CCC[C@@H]7c7cccc(F)c7)nn56)n4)CC3)c21 (stereo partly drawn) [TR-238, 3-(4-(3-(4-(6-(6-((R)-2-(3-Fluorophenyl)pyrrolidin-1-yl)imidazo[1,2-b]pyridazin-3-yl)pyridin-2-yl)piperazin-1-yl)prop-1-yn-1-yl)-3-methyl-2-oxo-2,3-dihydro-1H-benzo[d]imidazol-1-yl)piperidine-2,6-dione] | – | – | > 80 | 16.2 |
| Cn1c(=O)n(C2CCC(=O)NC2=O)c2cccc(C#CCCN3CCN(c4cccc(-c5cnc6ccc(N7CCC[C@@H]7c7cccc(F)c7)nn56)n4)CC3)c21 (stereo partly drawn) [TR-239, 3-(4-(4-(4-(6-(6-((R)-2-(3-Fluorophenyl)pyrrolidin-1-yl)imidazo[1,2-b]pyridazin-3-yl)pyridin-2-yl)piperazin-1-yl)but-1-yn-1-yl)-3-methyl-2-oxo-2,3-dihydro-1H-benzo[d]imidazol-1-yl)piperidine-2,6-dione] | > 80 | 45.9 | – | – |
| Cn1c(=O)n(C2CCC(=O)NC2=O)c2cccc(CCCN3CCN(c4cccc(-c5cnc6ccc(N7CCC[C@@H]7c7cccc(F)c7)nn56)n4)CC3)c21 (stereo partly drawn) [TR-240, 3-(4-(3-(4-(6-(6-((R)-2-(3-fluorophenyl)pyrrolidin-1-yl)imidazo[1,2-b]pyridazin-3-yl)pyridin-2-yl)piperazin-1-yl)propyl)-3-methyl-2-oxo-2,3-dihydro-1H-benzo[d]imidazol-1-yl)piperidine-2,6-dione] | > 80 | 16.1 | – | – |
| Cn1c(=O)n(C2CCC(=O)NC2=O)c2cccc(CCCCN3CCN(c4cccc(-c5cnc6ccc(N7CCC[C@@H]7c7cccc(F)c7)nn56)n4)CC3)c21 (stereo partly drawn) [TR-241, 3-(4-(4-(4-(6-(6-((R)-2˜ (3-fluorophenyl)pyrrolidin-1-yl)imidazo[1,2-b]pyridazin-3-yl)pyridin-2-yl)piperazin-1-yl)butyl)-3-methyl-2-oxo-2,3-dihydro-1H-benzo[d]imidazol-1-yl)piperidine-2,6-dione] | – | – | > 80 | 6.1 |
| Cn1c(=O)n(C2CCC(=O)NC2=O)c2cccc(OCCN3CCN(c4cccc(-c5cnc6ccc(N7CCC[C@@H]7c7cccc(F)c7)nn56)n4)CC3)c21 (stereo partly drawn) [TR-244, 3-(4˜ (2-(4-(6-(6-((R)-2-(3-Fluorophenyl)pyrrolidin-1-yl)imidazo[1,2-b]pyridazin-3-yl)pyridin-2-yl)piperazin-1-yl)ethoxy)-3-methyl-2-oxo-2,3-dihydro-1H-benzo[d]imidazol-1-yl)piperidine-2,6-dione] | < 50 | 298 | – | – |
| Cn1c(=O)n(C2CCC(=O)NC2=O)c2ccc(OCCN3CCN(c4cccc(-c5cnc6ccc(N7CCC[C@@H]7c7cccc(F)c7)nn56)n4)CC3)cc21 (stereo partly drawn) [TR-246, 3-(5-(2-(4-(6-(6-((R)-2-(3-Fluorophenyl)pyrrolidin-1-yl)imidazo[1,2-b]pyridazin-3-yl)pyridin-2-yl)piperazin-1-yl)ethoxy)-3-methyl-2-oxo-2,3-dihydro-1H-benzo[d]imidazol-1-yl)piperidine-2,6-dione] | > 80 | 101 | – | – |
| O=C1CCC(n2c(=O)oc3c(NCCN4CCN(c5cccc(-c6cnc7ccc(N8CCC[C@@H]8c8cccc(F)c8)nn67)n5)CC4)cccc32)C(=O)N1 (stereo partly drawn) [TR-247, 3-(7-((2-(4-(6-(6-((R)-2-(3-Fluorophenyl)pyrrolidin-1-yl)imidazo[1,2-b]pyridazin-3-yl)pyridin-2-yl)piperazin-1-yl)ethyl)amino)-2-oxobenzo[d]oxazol-3 (2H)-yl)piperidine-2,6-dione] | > 80 | 8.2 | – | – |
| O=C1CCC(N2C(=O)c3ccc(CN4CC(CN5CCN(c6cccc(-c7cnc8ccc(N9CCC[C@@H]9c9cccc(F)c9)nn78)n6)CC5)C4)cc3C2=O)C(=O)N1 (stereo partly drawn) [TR-248, 2-(2,6-Dioxopiperidin-3-yl)-5-((3-((4-(6-(6-((R)-2-(3-fluorophenyl)pyrrolidin-1-yl)imidazo[1,2-b]pyridazin-3-yl)pyridin-2-yl)piperazin-1-yl)methyl)azetidin-1-yl)methyl)isoindoline-1,3-dione] | > 80 | 27.4 | – | – |
| O=C1CCC(N2C(=O)c3ccc(CN4CC(CN5CCN(c6ccc(C(=O)Nc7n[nH]c8ccc(Cc9cc(F)cc(F)c9)cc78)c(NC7CCOCC7)c6)CC5)C4)cc3C2=O)C(=O)N1 (stereo not drawn) [TR-249, N-(5-(3,5-difluorobenzyl)-1H-indazol-3-yl)-4-(4-((1-((2-(2,6-dioxopiperidin-3-yl)-1,3-dioxoisoindolin-5-yl)methyl)azetidin-3-yl)methyl)piperazin-1-yl)-2-((tetrahydro-2H-pyran-4-yl)amino)benzamide] | > 80 | 15.1 | – | – |
| Cn1c(=O)n(C2CCC(=O)NC2=O)c2ccc(N3CC(CN4CCN(c5cccc(-c6cnc7ccc(N8CCC[C@@H]8c8cccc(F)c8)nn67)n5)CC4)C3)cc21 (stereo partly drawn) [TR-250, 3-(5-(3-((4-(6-(6-((R)-2-(3-fluorophenyl)pyrrolidin-1-yl)imidazo[1,2-b]pyridazin-3-yl)pyridin-2-yl)piperazin-1-yl)methyl)azetidin-1-yl)-3-methyl-2-oxo-2,3-dihydro-1H-benzo[d]imidazol-1-yl)piperidine-2,6-dione] | > 80 | 16.1 | – | – |
| O=C1CCC(N2C(=O)c3ccc(CN4CC(CN5CCN(c6ccc(C(=O)Nc7n[nH]c8ccc(Cc9cc(F)cc(F)c9)cc78)c(NCCF)c6)CC5)C4)cc3C2=O)C(=O)N1 (stereo not drawn) [TR-251] | > 80 | 46.5 | – | – |
| O=C1CCC(N2C(=O)c3ccc(CN4CC(N5CCN(c6ccc(C(=O)Nc7n[nH]c8ccc(Cc9cc(F)cc(F)c9)cc78)c(NCCF)c6)CC5)C4)cc3C2=O)C(=O)N1 (stereo not drawn) [TR-252, N—(S-(3,5-Difluorobenzyl)-1H-indazol-3-yl)-4-(4-(1-((2-(2,6-dioxopiperidin-3-yl)-1,3-dioxoisoindolin-5-yl)methyl)azetidin-3-yl)piperazin-1-yl)-2-((2-fluoroethyl)amino)benzamide] | – | – | > 80 | 47.6 |
| O=C1CCC(N2Cc3cc(C#CCN4CCN(c5ccc(C(=O)Nc6n[nH]c7ccc(Cc8cc(F)cc(F)c8)cc67)c(NC6CCOCC6)c5)CC4)ccc3C2=O)C(=O)N1 (stereo not drawn) [TR-253, N-(5-(3,5-Difluorobenzyl)-1H-indazol-3-yl)-4-(4-(3-(2-(2,6-dioxopiperidin-3-yl)-1-oxoisoindolin-5-yl)prop-2-yn-1-yl)piperazin-1-yl)-2-((tetrahydro-2H-pyran-4-yl)amino)benzamide] | > 80 | 6.9 | – | – |
| O=C1CCC(N2C(=O)c3ccc(CN4CC(N5CCN(c6ccc(C(=O)Nc7n[nH]c8ccc(Cc9cc(F)cc(F)c9)cc78)c(NC7CCOCC7)c6)CC5)C4)cc3C2=O)C(=O)N1 (stereo not drawn) [TR-254, N-(5-(3,5-difluorobenzyl)-1H-indazol-3-yl)-4-(4-(1-((2-(2,6-dioxopiperidin-3-yl)-1,3-dioxoisoindolin-5-yl)methyl)azetidin-3-yl)piperazin-1-yl)-2-((tetrahydro-2H-pyran-4-yl)amino)benzamide] | – | – | > 80 | 20.3 |
| O=C1CCC(N2Cc3cc(C#CCN4CCN(c5ccc(C(=O)Nc6n[nH]c7ccc(Cc8cc(F)cc(F)c8)cc67)c(NCCF)c5)CC4)ccc3C2=O)C(=O)N1 (stereo not drawn) [TR-255, N—(S-(3,5-Difluorobenzyl)-1H-indazol-3-yl)-4-(4-(3-(2-(2,6-dioxopiperidin-3-yl)-1-oxoisoindolin-5-yl)prop-2-yn-1-yl)piperazin-1-yl)-2-((2-fluoroethyl)amino)benzamide] | > 80 | 14.4 | – | – |
